Tests used:
FYN = target: T1, FYN (Homo sapiens, UniProt P06241); assay: Z'-LYTE in vitro kinase assay, FYN kinase inhibition; assay type: biochemical; conditions: for IC50: near-Km ATP, 60 minutes at 25° C.
T1 construct: purchased CarnaBioscience
Method: Assays to determine the kinase inhibitory activity of compounds were performed using an automatic liquid handling device (Microlab STAR Hamilton) and Z′-LYTE™ Kinase Assay Platform (Invitrogen), a Fluorescence Resonance Energy Transfer (FRET)-based assay platform compatible with high-throughput screening (HTS) applications. The assay employs a fluorescence-based, coupled-enzyme format and utilizes the differential sensitivity of phosphorylated and non-phosphorylated peptides to proteolytic cleavage.
Test compounds were evaluated towards active FYN (CarnaBioscience). The enzyme was incubated in a 384 low-volume microplate with a synthetic peptide-substrate, ATP and different inhibitor concentrations, ranging from 10^−10 M up to 10^−5 M final concentration. Samples representing the 0% inhibition (or total enzymatic activity) were in the presence of compound diluent (1% DMSO final) in Reaction Buffer (50 mM Hepes, 10 mM MgCl2, 1 mM EGTA, 0.01% Brij-35, pH 7.5).
A near-Km ATP concentrations for the kinase and an optimal enzyme concentration that phosphorylates 20-40% of the Z′-LYTE™ Tyr 2 Peptide in a one-hour incubation, were selected. All reagents were diluted in reaction buffer and the kinase reaction was carried out in a total volume of 10 μl, for 60 minutes at 25° C. The 0% Phosphorylation (i.e. no ATP) and 100% Phosphorylation (i.e. synthetically phosphorylated peptide supplied) Assay Controls, included in each plate, allowed to calculate the percent phosphorylation achieved in the specific reaction well. The 0% Inhibition and 0% Phosphorylation (i.e. 100% Inhibition) Controls define the dynamic range in the screen. At the end of incubation, a secondary reaction (the Development Reaction) started by adding 5 μl of Development Reagent, containing a site-specific protease that recognizes and cleaves non-phosphorylated peptides, and was interrupted after 60 minutes with 5 μl/sample of Stop Reagent. Measurement of the Coumarin (Ex. 400 nm, Em. 460 nm) and Fluorescein (Ex. 400 nm, Em. 535 nm) emission signals were performed by a fluorescence plate reader (Envision, PerkinElmer).
Results are expressed as percentage of inhibition and the IC50 values were calculated by non-linear curve fitting using GraphPad™ Prism software.

VEGFR2 (KDR) kinase = target: T2, VEGFR2 (KDR) kinase (Homo sapiens, UniProt P35968); assay: ADP-Glo in vitro kinase assay, VEGFR2 kinase inhibition; assay type: biochemical; conditions: for IC50: ATP 50 μM, 30 minutes at room temperature; for VEGFR2 kinase inhibition, result in words: Table 19
T2 construct: purchased SignalChem
T2 sequence (P35968 20-1356): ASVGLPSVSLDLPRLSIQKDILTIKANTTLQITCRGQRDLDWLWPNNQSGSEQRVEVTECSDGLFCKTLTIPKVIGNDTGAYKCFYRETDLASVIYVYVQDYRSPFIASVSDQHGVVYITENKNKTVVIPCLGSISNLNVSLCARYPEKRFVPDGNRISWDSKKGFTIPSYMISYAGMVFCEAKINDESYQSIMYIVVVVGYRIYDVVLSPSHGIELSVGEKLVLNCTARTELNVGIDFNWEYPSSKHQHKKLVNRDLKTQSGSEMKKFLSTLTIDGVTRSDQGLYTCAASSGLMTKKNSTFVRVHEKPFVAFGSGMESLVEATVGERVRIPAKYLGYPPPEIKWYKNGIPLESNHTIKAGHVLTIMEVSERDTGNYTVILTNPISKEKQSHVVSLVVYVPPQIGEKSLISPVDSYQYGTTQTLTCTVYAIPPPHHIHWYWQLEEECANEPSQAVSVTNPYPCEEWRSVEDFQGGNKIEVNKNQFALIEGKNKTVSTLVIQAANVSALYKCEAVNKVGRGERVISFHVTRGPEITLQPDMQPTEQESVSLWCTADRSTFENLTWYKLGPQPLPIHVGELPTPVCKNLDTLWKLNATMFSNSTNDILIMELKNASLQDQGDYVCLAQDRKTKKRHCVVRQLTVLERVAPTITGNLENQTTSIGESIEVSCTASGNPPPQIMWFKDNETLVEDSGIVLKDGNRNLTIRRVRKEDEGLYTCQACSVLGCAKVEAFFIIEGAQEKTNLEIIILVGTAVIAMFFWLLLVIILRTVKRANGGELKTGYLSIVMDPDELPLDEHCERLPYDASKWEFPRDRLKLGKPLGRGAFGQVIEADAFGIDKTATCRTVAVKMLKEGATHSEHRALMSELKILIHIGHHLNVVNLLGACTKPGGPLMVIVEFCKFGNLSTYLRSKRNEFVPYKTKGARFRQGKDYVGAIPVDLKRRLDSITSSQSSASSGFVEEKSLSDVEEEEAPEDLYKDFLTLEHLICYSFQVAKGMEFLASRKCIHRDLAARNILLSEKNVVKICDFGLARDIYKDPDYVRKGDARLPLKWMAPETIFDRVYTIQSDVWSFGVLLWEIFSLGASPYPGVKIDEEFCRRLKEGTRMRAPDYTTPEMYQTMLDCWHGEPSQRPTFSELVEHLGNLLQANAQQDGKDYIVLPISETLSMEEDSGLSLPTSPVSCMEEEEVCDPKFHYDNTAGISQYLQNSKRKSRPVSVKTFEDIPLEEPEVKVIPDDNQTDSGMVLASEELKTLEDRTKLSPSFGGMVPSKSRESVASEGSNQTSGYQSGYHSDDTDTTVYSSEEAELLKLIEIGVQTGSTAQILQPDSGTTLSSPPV
Method: (§1) The ADP-Glo™ Kinase Assay (Promega), monitoring ADP produced in the kinase reaction, was performed in two steps. In the first one, after the kinase reaction, the ADP-Glo™ Reagent is added to terminate the kinase reaction and deplete the remaining ATP. In the second step, the Kinase Detection Reagent is added to simultaneously convert ADP to ATP (ATPn or newly synthesized ATP) and introduce luciferase and luciferin, allowing the ATPn to be measured (luciferase/luciferin reaction). The amount of light generated correlates with the amount of ATPn (indirectly with the ADP produced in kinase reaction).
(§2) Kinase reaction was performed in 10 μl in a white 384-well plate, inhibitor solutions in DMSO/Kinase buffer (40 mM Tris-Cl, 20 mM MgCl2, 0.1 mg/ml BSA, 50 μM DTT, pH 7.5) and VEGFR2 (KDR) kinase in Kinase buffer (SignalChem, 0.5 ng/μl final concentration in assay) were pre-incubate 15 minutes at room temperature. At the kinase concentration selected, a signal-to negative control ratio >10 was calculated, according to supplier indication. In samples representing the Total enzymatic activity or the negative control (no enzyme), inhibitor solution was replaced by diluents (1 DMSO in kinase buffer, final concentration) or ultra-pure water, respectively.
(§3) The range of inhibitor concentrations was from 10^−11 M up to 3×10^−6 M (final concentration in assay) and each experimental point was performed in duplicate.
(§4) To start the reaction, a substrate/ATP mix (50 μM final concentration, near to ATP Km value) was added to each sample and after 30 minutes incubation at room temperature, ADP-Glo™ Reagent and Kinase Detection Reagent, incubated in sequence according to the respective incubation time and supplier indication, allowed to stop and develop the kinase reaction. The luminescence was measured with a plate-reading luminometer (Envision 2104 Multilabel reader, PerkinElmer). The percentage of inhibition was calculated towards the Total enzymatic activity and the corresponding curves were analyzed by non linear curve fitting (GraphPad software, version 7 for Windows), allowing to calculate the IC50 value±standard error of the value

human FynB = human FynB (Homo sapiens, UniProt P06241); assay: Inhibition of FynB-induced Tau(Y18)-phosphorylation (cell-based assay, HEK293); conditions: for IC50: HEK293 over-expressing FynB and Tau 0N4R, incubation 6 or 24 hours, ELISA; for Inhibition of FynB-induced Tau(Y18)-phosphorylation, result in words: summary of Table 20
human FynB, sequence (P06241 271-524 limits assumed): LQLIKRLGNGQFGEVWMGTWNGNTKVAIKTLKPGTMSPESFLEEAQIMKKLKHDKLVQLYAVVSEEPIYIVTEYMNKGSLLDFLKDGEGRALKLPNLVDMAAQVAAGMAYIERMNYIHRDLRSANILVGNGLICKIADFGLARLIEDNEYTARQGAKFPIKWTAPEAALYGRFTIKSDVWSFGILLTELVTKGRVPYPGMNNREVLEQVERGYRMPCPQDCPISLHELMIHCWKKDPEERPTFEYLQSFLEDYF
Method: HEK293 cells (Human Embryonic Kidney 293) were seeded at 6×10^5 in poly-D-lysine 12 w microplates and grown adherent in medium DMEM/10% FBS at 37° C. with 5% CO2. After 24 h, cells were transfected in order to over-express either constitutively active form of human FynB and Tau protein (isoform 0N4R), through an optimized Lipofectamine® 3000 Transfection protocol (Life Technologies™). A non-transfected sample (negative control) was included in every experiment.
Twenty-four hours from transfection, treatments of cells were performed by adding fresh medium containing diluent (DMSO 0.1% final concentration) or test compounds. The incubation was carried out for 6 or 24 hours at 37° C. with 5% CO2. All experimental conditions were performed in duplicate.
At the end of the incubation, the medium was removed and cellular lysates were obtained by adding M-PER lysis buffer containing a 1× Protease/Phosphatase inhibitors cocktail. Then, lysates were transferred into Eppendorf tubes, sonicated and stored at −80° C.
Protein content was measured by Bradford method. Lysates were analyzed by a customized ELISA assay for Tau phosphorylation (Tyrosine 18 residue-Fyn mediated) and Total amount determination. The net OD values were used to calculate the inhibitory effect of compounds.

EGFR = EGFR (Homo sapiens, UniProt P00533); assay: ADP-Glo in vitro kinase assay, EGFR kinase inhibition; assay type: biochemical; design: purchased SignalChem; conditions: for IC50: ATP 10 μM, 30 minutes at room temperature
EGFR, sequence (P00533 25-1210): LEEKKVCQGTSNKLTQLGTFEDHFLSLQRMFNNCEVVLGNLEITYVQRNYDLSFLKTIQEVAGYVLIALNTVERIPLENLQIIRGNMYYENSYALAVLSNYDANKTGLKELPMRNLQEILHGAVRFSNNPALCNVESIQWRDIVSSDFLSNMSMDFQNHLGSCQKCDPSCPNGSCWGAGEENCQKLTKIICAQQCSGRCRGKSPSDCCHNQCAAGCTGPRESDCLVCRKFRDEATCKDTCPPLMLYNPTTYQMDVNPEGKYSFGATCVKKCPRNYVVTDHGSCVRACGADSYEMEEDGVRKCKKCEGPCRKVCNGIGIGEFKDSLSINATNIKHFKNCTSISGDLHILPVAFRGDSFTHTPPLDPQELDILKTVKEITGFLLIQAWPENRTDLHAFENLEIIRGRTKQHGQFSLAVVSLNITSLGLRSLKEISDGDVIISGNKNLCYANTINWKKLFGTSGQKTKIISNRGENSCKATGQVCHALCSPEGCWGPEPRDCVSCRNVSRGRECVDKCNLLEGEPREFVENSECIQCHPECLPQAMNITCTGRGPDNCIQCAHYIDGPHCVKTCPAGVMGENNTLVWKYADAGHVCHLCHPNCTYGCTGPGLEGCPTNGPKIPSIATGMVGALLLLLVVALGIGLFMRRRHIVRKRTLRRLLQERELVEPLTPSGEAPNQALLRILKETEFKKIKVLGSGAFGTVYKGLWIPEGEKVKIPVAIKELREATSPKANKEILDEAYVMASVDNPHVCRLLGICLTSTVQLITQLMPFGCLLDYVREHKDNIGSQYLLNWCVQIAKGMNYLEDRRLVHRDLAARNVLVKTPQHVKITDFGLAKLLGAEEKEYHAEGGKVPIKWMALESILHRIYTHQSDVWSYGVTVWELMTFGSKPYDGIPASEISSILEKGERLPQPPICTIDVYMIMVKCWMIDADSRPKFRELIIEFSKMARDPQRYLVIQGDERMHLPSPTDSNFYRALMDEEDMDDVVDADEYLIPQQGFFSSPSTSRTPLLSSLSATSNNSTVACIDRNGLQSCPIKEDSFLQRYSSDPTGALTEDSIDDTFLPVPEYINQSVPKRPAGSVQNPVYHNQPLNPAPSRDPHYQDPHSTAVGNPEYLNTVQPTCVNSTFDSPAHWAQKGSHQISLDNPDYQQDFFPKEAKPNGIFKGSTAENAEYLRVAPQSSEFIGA
Method: as §1
as §2, with “EGFR” for “VEGFR2 (KDR)”, “2.5” for “0.5”, “selected” for “selected,”, “activity (no inhibitor)” for “activity”
as §3
as §4, with “mix (ATP 10” for “mix (50”, “the estimate.” for “the value”

U87MG = assay: Cell viability, ViaCount assay, U87MG; assay type: cell-based, human; conditions: tested cell lines (U87MG, U373)
Method: U87MG: a human glioblastoma astrocytoma from ATCC. Grown in DMEM medium supplemented with 10% FBS at 37° C. with CO2.
Cell viability and total cell count was performed with ViaCount Assay on Guava® Systems, which was able to distinguish viable and non-viable cells based on differential permeabilities of two DNA-binding dyes in the Guava ViaCount® Reagent. 2×10^4 cancer cells were plated in 24 well in DMEM 10%. After 72 h cells were treated with the different compounds for 24, 72 h or 7 days, with a medium change and a second treatment with the product on day 4. At the end of the incubation period the analysis was done following the kit instructions.

T1 sequence (P06241 whole entry): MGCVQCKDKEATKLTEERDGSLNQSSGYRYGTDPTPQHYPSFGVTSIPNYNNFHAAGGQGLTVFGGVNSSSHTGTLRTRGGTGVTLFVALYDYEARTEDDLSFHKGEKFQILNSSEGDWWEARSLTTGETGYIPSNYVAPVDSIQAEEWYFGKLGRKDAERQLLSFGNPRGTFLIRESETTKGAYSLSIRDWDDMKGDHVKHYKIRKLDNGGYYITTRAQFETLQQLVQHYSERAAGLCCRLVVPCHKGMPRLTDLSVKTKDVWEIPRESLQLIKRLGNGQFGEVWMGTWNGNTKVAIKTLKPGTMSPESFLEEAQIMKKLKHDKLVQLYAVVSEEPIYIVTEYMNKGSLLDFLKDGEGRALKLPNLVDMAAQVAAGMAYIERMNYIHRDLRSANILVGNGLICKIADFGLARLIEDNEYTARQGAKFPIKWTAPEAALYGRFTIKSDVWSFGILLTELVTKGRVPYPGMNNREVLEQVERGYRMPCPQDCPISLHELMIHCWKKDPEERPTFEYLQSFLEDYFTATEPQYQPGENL

| IC50 (FYN) [nM] | IC50 (VEGFR2 (KDR) kinase) [nM] | IC50 (human FynB) [nM] | IC50 (EGFR) [nM] | FYN kinase inhibition, result in words (FYN; Table 17) | VEGFR2 kinase inhibition, result in words (VEGFR2 (KDR) kinase) | Inhibition of FynB-induced Tau(Y18)-phosphorylation, result in words (human FynB) | EGFR kinase inhibition, result in words (EGFR; text summary of Table 18) | Structure (SMILES) | reduction of cell viability, result in words (U87MG) |
| --- | --- | --- | --- | --- | --- | --- | --- | --- | --- |
| 111 | 2.6 | 230 | ≥ 1000 | – | – | – | – | Cc1ccc(Nc2ccc3c(NC(=O)c4ccc(C5CCN(C)CC5)cc4)n[nH]c3n2)cc1 [Compound 23, 4-(1-methylpiperidin-4-yl)-N-(6-(p-tolyamino)-1H-pyrazolo[3,4-b]pyridin-3-yl)benzamide] | – |
| 72 | 1 | 100 | ≥ 1000 | more active | more potent | best inhibitors | – | CN1CCC(c2ccc(C(=O)Nc3n[nH]c4nc(Nc5ccc6c(c5)OCO6)ccc34)cc2)CC1 [Compound 28, N-(6-(benzo[d][1,3]dioxol-5-ylamino)-1H-pyrazolo[3,4-b]pyridin-3-yl)-4-(1-methylpiperidin-4-yl)benzamide] | active in reducing cell viability |
| 115 | 1 | 669 | 155 | – | more potent | – | – | Cc1ccc(Nc2ccc3c(NC(=O)c4ccc(C5CCN(C)CC5)cc4)n[nH]c3n2)c(F)c1 [Compound 30, N-(6-((2-fluoro-4-methylphenyl)amino)-1H-pyrazolo[3,4-b]pyridin-3-yl)-4-(1-methylpiperidin-4-yl)benzamide] | – |
| 212 | 1 | 259 | 15 | – | more potent | best inhibitors | more active | CN1CCN(c2ccc(C(=O)Nc3n[nH]c4nc(Nc5ccccc5F)ccc34)cc2)CC1 [Compound 48, N-(6-((2-fluorophenyl)amino)-1H-pyrazolo[3,4-b]pyridin-3-yl)-4-(4-methylpiperazin-1-yl)benzamide] | – |
